Results: BindingDB's records for doi:10.1021/jm010212m (Purdue University, 2001)

Molecular target: T1, Gag-Pol polyprotein [588-1027]/[588-1147] (Human immunodeficiency virus 1, UniProt P04585)
T1 construct: 588-1027; 588-1147
Experiment: HIV-1 RT Assay
Conditions: not given

Structure (SMILES) | IC50
COC(=O)c1cc(C(=CCCCC(=O)N2CCCCC2)c2cc(Cl)c(OC)c(C(=O)OC)c2)cc(Cl)c1OC [6,6-Bis(3-chloro-4-methoxy-5-methoxycarbonylphenyl)-1-piperidylhex-5-en-1-one] | > 100 µM
COC(=O)c1cc(C(=CCCCC(OC)OC)c2cc(Cl)c(OC)c(C(=O)OC)c2)cc(Cl)c1OC [Alkenyldiarylmethane (ADAM) 38a] | > 100 µM
COC(=O)c1cc(C(=CCCNC(C)=O)c2cc(Cl)c(OC)c(C(=O)OC)c2)cc(Cl)c1OC [Methyl 5-{4-(Acetylamino)-1-[3-chloro-4-methoxy-5-(methoxycarbonyl)phenyl]but-1-enyl}-3-chloro-2-methoxybenzoate] | > 100 µM
COC(=O)c1cc(C(=CCCCC(=O)OCC[Si](C)(C)C)c2cc(C)c(OC)c(C(=O)OC)c2)cc(C)c1OC [methyl 2-methoxy-5-{1-[4-methoxy-3-(methoxycarbonyl)-5-methylphenyl]-6-oxo-6-[2-(trimethylsilyl)ethoxy]hex-1-en-1-yl}-3-methylbenzoate] | > 100 µM
CCNC(=O)NCCC=C(c1cc(Cl)c(OC)c(C(=O)OC)c1)c1cc(Cl)c(OC)c(C(=O)OC)c1 [methyl 3-chloro-5-{1-[3-chloro-4-methoxy-5-(methoxycarbonyl)phenyl]-4-[(ethylcarbamoyl)amino]but-1-en-1-yl}-2-methoxybenzoate] | > 100 µM
CNC(=S)NCCC=C(c1cc(Cl)c(OC)c(C(=O)OC)c1)c1cc(Cl)c(OC)c(C(=O)OC)c1 [methyl 3-chloro-5-{1-[3-chloro-4-methoxy-5-(methoxycarbonyl)phenyl]-4-[(methylcarbamothioyl)amino]but-1-en-1-yl}-2-methoxybenzoate] | > 100 µM

Same assay, conditions: pH 7.9

Structure (SMILES) | IC50
COC(=O)c1cc(C(=CCCCc2ccccc2)c2cc(Br)c(OC)c(C(=O)OC)c2)cc(Br)c1OC [1,1-Bis[3-bromo-4-methoxy-5-(methoxycarbonyl)phenyl]-5-phenyl-1-pentene] | > 100 µM
COC(=O)c1cc(C(=CCCCc2ccccc2)c2cc(Cl)c(OC)c(C(=O)OC)c2)cc(Cl)c1OC [1,1-Bis[3-chloro-4-methoxy-5-(methoxycarbonyl)phenyl]-5-phenyl-1-pentene] | > 100 µM
COC(=O)CCCC=C(c1cc(C(=O)OC)c(OC)c(C(F)(F)F)c1)c1cc(C(=O)OC)c(OC)c(C(F)(F)F)c1 [Alkenyldiarylmethane (ADAM) 18a] | > 200 µM
COC(=O)c1cc(C(=CCCCC(=O)OC(C)C)c2cc(Cl)c(OC)c(C(=O)OC)c2)cc(Cl)c1OC [Alkenyldiarylmethane (ADAM) 25a] | > 100 µM
